Drawing on US8426448B2, “1,5-diphenyl-pyrrolidin-2-one compounds as CB-1 ligands” (Eli Lilly and Company, priority 2008, dated 2013), this text covers bioavailability, Kb and EC50 for one compound.

Where a name gives a salt, the structure may show the parent alone. Some results are limits rather than exact numbers.

A short description of one data set: Rat oral bioavailability. The data set is classed as in vivo. To be noted: Sprague-Dawley, plasma, fasted male SD rats, IV 0.25 mg/kg (20% Pharmasolve, 10% HPBCD, pH 3), PO 1 mg/kg (1% CMC, 0.5% SLS, 0.5% AF), mean±s.d, n=3, based on AUC0-∞. The procedure:
Cohorts of three or four 250-450 gram male Sprague-Dawley rats or approximately 10 kg Beagle dogs (female or male) are used. […] Dogs are administered i.v. by cannulated cephalic vein and blood collections are by jugular vein. Animals are first dosed at 0.25 mg/kg i.v. and blood samples (0.2 mL) are then collected using EDTA as an anticoagulant at 0.0830, 0.25, 0.50, 1, 2, 4, 8, 12, 24, 48, 72, 96, and 120 hours. Next after at least two days and after 18-24 hours fasting, the animals are dosed at 1.0 mg/kg by oral gavage. During the course of a study the total of blood (ml) collected is not to exceed 1% of total body weight in grams. Should larger blood volumes be required, the sampled blood volume is replace with heparinized whole blood from a donor animal. When using a cross-over study design, rats receive a volume of heparinized whole blood following the final sample of each study day approximately equal to that removed during study.
Compound plasma concentrations are measured by LC/MS/MS assays. Data are then analyzed using standard non-compartmental pharmacokinetic analysis. Oral bioavailability is calculated as: (AUC0-infinity,oral/AUC0-infinity,i.v.)×(Dose,i.v./Dose,oral)×100%

In the next data set the target is T1, hCB-2 (Homo sapiens, UniProt P34972).
T1 construct: purchased Perkin Elmer, Boston, Mass; host or cells: Sf9 cell membranes
T1 sequence (P34972 whole entry): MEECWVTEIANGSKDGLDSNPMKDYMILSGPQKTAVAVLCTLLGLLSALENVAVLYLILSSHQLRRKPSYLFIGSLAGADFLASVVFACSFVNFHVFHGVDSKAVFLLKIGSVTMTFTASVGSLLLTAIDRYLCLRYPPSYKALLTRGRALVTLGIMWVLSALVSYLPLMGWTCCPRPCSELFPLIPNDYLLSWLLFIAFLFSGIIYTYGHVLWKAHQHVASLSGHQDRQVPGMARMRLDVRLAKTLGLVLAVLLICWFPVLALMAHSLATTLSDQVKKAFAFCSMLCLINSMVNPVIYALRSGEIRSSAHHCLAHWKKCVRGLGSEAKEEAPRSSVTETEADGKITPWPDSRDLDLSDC
The data set is described as follows: hCB2-Sf9 antagonist mode SPA GTP-γ-35S binding assay. To be noted: antagonist mode vs methanandamide; read-out: hCB-2 SPA GTPγS Sf9 Membrane Antagonist Kb. The data set is classed as biochemical. The procedure: (§1) Compounds of the present invention may be tested for functional activity at the CB-1 and CB-2 receptors in both agonist and antagonist modes using SPA (Scintillation Proximity Assay) based GTP-γ-^35S binding assays. All assay components are prepared in assay buffer (20 mM HEPES, 100 mM NaCl, 5 mM MgCl2, pH 7.4) at room temperature. Semi-log dilutions of test compound are prepared in assay buffer containing BSA (0.125% final conc.) for the agonist mode assays. For the antagonist mode assays, test compounds are prepared in the same manner but also include an 80% efficacious dose of a full agonist (methanandamide). GTP-γ^35S binding for the antagonist assay may be measured in a 96 well format using a modification of an antibody capture technique previously described. (DeLapp, N W, et al. (1999) J Pharmacol Exp Ther 289:946-955.) The CB-2 receptor agonist activity may be measured using a similar method using hCB2-Sf9 membranes. The CB-1 receptor agonist activity may be measured using a whole membrane capture technique using hCB1-CHO membranes. All incubations are done at room temperature. […]
(§2) Data are analyzed as follows: Background is subtracted from all wells. […] Percent antagonist inhibition is calculated by first normalizing the data to the signal generated by a saturating concentration of the full agonist (methanandamide). Then the data are analyzed using a 4-parameter logistic reduced fit (Activity Base™ and XLFit3™ from IDBS, Emeryville, Calif.). Kb values are determined using a modification of the Cheng-Prusoff relationship: Kb=IC50/(1+[agonist]/EC50), where “IC50” is determined from a four parameter fit of displacement curves, “[agonist]” is the agonist challenge concentration (nM), and “EC50” is determined from a four parameter fit of a full agonist concentration response curve (Cheng and Prusoff 1973). Mean Kb values are calculated as a mean of at least three independent determinations±standard error of the mean (SEM). […]

The target in data set [1] is T2, hCB-1 (Homo sapiens, UniProt P21554). Nature of the data set: hCB1-CHO agonist mode SPA GTP-γ-35S binding assay. The data set is classed as biochemical. Set-up: purchased Applied Cell Sciences, Rockville, Md; host or cells: CHO cell membranes. To be noted: inverse agonism, read-out: hCB-1 SPA GTPγS CHO Membrane Agonist Relative EC50 inverse. The procedure:
(§3) Compounds of the present invention may be tested for functional activity at the CB-1 and CB-2 receptors in both agonist and antagonist modes using SPA (Scintillation Proximity Assay) based GTP-γ-^35S binding assays. All assay components are prepared in assay buffer (20 mM HEPES, 100 mM NaCl, 5 mM MgCl2, pH 7.4) at room temperature. Semi-log dilutions of test compound are prepared in assay buffer containing BSA (0.125% final conc.) for the agonist mode assays. For the antagonist mode assays, test compounds are prepared in the same manner but also include an 80% efficacious dose of a full agonist (methanandamide). GTP-γ^35S binding for the antagonist assay may be measured in a 96 well format using a modification of an antibody capture technique previously described. (DeLapp, N W, et al. (1999) J Pharmacol Exp Ther 289:946-955.) The CB-2 receptor agonist activity may be measured using a similar method using hCB2-Sf9 membranes. The CB-1 receptor agonist activity may be measured using a whole membrane capture technique using hCB1-CHO membranes. All incubations are done at room temperature.
hCB1-CHO membrane, GDP (1 μM final conc.), and saponin (10 μg/mL final conc., Sigma, St Louis, Mo.) are combined and prepared on ice as for the antagonist assays, above. Diluted test compounds, GTP-γ-^35S ([…] final conc.) and membranes are combined in the assay plate and incubated for 30 min. Then 1 mg/well Wheatgerm Agglutinin SPA beads (GE Healthcare, Piscataway, N.J.) are added, plates are sealed and vortexed and incubate for 1 hr. before spinning and counting in the same fashion as for the antagonist assays, above.
Data are analyzed as follows: Background is subtracted from all wells. Percent agonist efficacy is determine by normalizing agonist/inverse agonist dose response data to the response obtained for a full agonist (methanandamide). Percent antagonist inhibition is calculated by first normalizing the data to the signal generated by a saturating concentration of the full agonist (methanandamide). Then the data are analyzed using a 4-parameter logistic reduced fit (Activity Base™ and XLFit3™ from IDBS, Emeryville, Calif.). Kb values are determined using a modification of the Cheng-Prusoff relationship: Kb=IC50/(1+[agonist]/EC50), where “IC50” is determined from a four parameter fit of displacement curves, “[agonist]” is the agonist challenge concentration (nM), and “EC50” is determined from a four parameter fit of a full agonist concentration response curve (Cheng and Prusoff 1973). Mean Kb values are calculated as a mean of at least three independent determinations±standard error of the mean (SEM). […]

In the next data set the target is T3, rCB-1 (Rattus norvegicus, UniProt P20272).
T3 construct: purchased Applied Cell Sciences, Rockville, Md; host or cells: CHO cell membranes
T3 sequence (P20272 whole entry): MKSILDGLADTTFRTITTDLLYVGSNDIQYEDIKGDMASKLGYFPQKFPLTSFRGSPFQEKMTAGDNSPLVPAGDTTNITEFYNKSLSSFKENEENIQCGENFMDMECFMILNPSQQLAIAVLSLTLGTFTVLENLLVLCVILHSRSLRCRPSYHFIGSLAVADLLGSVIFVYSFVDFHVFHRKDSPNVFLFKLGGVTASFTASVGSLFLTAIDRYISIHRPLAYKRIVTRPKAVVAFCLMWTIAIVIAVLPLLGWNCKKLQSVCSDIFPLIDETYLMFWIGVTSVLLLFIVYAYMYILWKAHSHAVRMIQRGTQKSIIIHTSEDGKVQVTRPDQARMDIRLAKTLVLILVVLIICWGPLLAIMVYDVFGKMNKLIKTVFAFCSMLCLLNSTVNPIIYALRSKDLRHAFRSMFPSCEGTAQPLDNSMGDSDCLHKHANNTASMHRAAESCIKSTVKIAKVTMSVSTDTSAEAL
The data set is described as follows: rCB1-CHO antagonist mode SPA GTP-γ-35S binding assay. The data set is classed as biochemical. Particulars: antagonist mode vs methanandamide; read-out: rCB-1 SPA GTPγS CHO Membrane Antagonist Kb. The procedure: as §3
hCB1-CHO or rCB1-CHO membranes (Applied Cell Sciences, Rockville, Md.) and GDP (1 μM final) are added to ice cold assay buffer and homogenized. […] Plates are then centrifuged at 700×g for 10 min. and the radioactivity counted.
Data are analyzed as follows: Background is subtracted from all wells. […] Percent antagonist inhibition is calculated by first normalizing the data to the signal generated by a saturating concentration of the full agonist (methanandamide). Then the data are analyzed using a 4-parameter logistic reduced fit (Activity Base™ and XLFit3™ from IDBS, Emeryville, Calif.). Kb values are determined using a modification of the Cheng-Prusoff relationship: Kb=IC50/(1+[agonist]/EC50), where “IC50” is determined from a four parameter fit of displacement curves, “[agonist]” is the agonist challenge concentration (nM), and “EC50” is determined from a four parameter fit of a full agonist concentration response curve (Cheng and Prusoff 1973). […]

Data set [2] deals with T2, hCB-1. The data set is described as follows: hCB1-Sf9 antagonist mode SPA GTP-γ-35S binding assay. The data set is classed as biochemical. Set-up: purchased Applied Cell Sciences, Rockville, Md. Particulars: Sf9 membrane 22.7 μg; antagonist mode vs methanandamide; read-out: hCB-1 SPA GTPγS Sf9 Membrane 22.7 μg Antagonist Kb. How it is done:
as §1, §2

T2 sequence (P21554 whole entry): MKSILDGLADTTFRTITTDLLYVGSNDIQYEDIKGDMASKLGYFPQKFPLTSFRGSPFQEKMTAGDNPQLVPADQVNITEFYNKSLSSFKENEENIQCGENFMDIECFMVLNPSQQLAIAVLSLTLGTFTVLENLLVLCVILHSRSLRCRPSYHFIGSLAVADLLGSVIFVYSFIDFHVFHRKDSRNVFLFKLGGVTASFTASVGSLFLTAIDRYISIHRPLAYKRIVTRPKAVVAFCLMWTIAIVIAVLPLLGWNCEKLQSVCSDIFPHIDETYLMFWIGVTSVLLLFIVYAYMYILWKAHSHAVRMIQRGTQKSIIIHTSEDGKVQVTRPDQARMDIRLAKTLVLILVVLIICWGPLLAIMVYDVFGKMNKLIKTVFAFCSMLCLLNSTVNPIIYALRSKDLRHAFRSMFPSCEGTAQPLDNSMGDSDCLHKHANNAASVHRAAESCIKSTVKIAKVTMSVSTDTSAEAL

With `CC(C)(N[C@@H]1C[C@H](c2cccc(C(F)(F)F)c2)N(c2ccc(OC(F)(F)F)cc2)C1=O)c1cccc(C(F)(F)F)n1` [28 HCl salt, (3R,5R)-3-[1-methyl-1-(6-trifluoromethyl-pyridin-2-yl)-ethylamino]-1-(4-trifluoromethoxy-phenyl)-5-(3-trifluoromethyl-phenyl)-pyrrolidin-2-one], the bioavailability in the data set “Rat oral bioavailability” was 40 ± 6%. Also, the Kb is greater than 9.09 µM at hCB-2, 0.196 nM on rCB-1 and 0.59 nM at hCB-1 [2]. In addition, the EC50 on hCB-1 [1] turned out to be 1.27 nM.
